Bounds are passed on as bounds.

Chain of GST tagged truncated human mutant G2019S LRRK2 (Q5S007 970-2527 G2019S): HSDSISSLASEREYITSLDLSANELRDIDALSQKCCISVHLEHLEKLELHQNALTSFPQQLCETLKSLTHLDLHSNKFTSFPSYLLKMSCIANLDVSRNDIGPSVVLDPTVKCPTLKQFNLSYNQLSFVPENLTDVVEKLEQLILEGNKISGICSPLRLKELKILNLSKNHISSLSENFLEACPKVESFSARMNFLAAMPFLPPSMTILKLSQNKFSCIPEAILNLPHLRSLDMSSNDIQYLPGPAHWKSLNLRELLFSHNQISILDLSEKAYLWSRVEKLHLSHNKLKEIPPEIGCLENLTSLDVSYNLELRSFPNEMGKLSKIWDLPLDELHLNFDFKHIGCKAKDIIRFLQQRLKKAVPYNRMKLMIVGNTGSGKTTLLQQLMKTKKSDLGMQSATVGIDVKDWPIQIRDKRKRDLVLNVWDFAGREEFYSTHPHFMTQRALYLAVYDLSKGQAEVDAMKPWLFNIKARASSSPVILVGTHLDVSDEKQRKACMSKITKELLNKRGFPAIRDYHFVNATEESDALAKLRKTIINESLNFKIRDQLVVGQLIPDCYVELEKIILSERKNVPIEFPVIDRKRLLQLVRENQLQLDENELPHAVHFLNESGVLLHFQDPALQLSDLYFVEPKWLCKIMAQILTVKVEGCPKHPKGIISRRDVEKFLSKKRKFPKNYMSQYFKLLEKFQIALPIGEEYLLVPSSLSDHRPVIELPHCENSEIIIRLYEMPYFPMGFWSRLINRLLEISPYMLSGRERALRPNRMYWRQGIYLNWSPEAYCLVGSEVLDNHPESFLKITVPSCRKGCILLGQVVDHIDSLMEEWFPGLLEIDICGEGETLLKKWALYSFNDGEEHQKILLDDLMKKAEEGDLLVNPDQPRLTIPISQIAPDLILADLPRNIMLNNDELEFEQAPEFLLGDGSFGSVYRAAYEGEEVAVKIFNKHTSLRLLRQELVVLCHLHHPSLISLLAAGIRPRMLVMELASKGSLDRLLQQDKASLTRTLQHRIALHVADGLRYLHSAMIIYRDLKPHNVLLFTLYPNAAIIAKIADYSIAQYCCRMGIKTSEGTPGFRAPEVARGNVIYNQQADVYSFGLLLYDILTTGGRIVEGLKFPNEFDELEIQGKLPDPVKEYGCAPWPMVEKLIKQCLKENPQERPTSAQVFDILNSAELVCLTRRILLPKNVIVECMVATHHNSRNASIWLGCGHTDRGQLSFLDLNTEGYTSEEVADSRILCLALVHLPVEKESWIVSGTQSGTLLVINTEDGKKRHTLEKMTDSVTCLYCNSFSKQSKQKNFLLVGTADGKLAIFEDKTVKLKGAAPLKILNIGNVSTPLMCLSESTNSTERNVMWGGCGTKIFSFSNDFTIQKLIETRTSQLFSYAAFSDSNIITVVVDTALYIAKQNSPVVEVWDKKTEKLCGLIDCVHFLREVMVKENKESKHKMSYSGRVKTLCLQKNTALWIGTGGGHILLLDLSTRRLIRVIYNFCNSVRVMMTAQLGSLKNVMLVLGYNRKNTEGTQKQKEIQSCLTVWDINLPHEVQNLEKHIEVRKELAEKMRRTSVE

The first assay addresses GST tagged truncated human mutant G2019S LRRK2 (Homo sapiens (Human), UniProt Q5S007, G2019S). The assay is described as follows: LRRK2 Km ATP LanthaScreen Assay. The class given is biochemical. The note with it: G2019S LRRK2, 134 μM ATP (Km ATP), mean values. In outline:
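Enzyme (GST-tagged, truncated) was preincubated with compound for 15 min at RT in 50 mM Tris pH 8.5, 10 mM MgCl2, 0.01% Brij-35, 1 mM EGTA, 2 mM DTT and 0.05 mM orthovanadate. Fluorescein-LRRKtide and 134 μM ATP (Km) were then added for 90 min. EDTA and Tb-anti-pERM antibody stopped the reaction; the TR-FRET 520/495 ratio gave 4-parameter IC50s, reported as mean pIC50.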
For orientation: TR-FRET usually uses a lanthanide donor and a delayed reading to cut background.
As to `C[C@@]1(N2CCC(c3cc4nc(Nc5cnn(C6CC6)c5C(F)F)ncc4cc3Cl)CC2)COC[C@@H]1O` (single isomer, unassigned) [Ex-2.91, (3S,4S) or (3R,4R) 4-[4-(6-chloro-2-{[1-cyclopropyl-5-(difluoromethyl)-1H-pyrazol-4-yl]amino}quinazolin-7-yl)piperidin-1-yl]-4-methyloxolan-3-ol], the “LRRK2 pIC50” value is listed as over 9.20. In the case of `CC1(N2CCC(n3ncc(Nc4ncc5cc(Cl)c(C6CC6(F)F)cc5n4)c3Cl)C(F)C2)COC1` (single isomer, unassigned) [Ex-3.1, (3R,4R)(7S) or (3R,4R)(7R) or (3S,4S)(7S) or (3S,4S)(7R) 6-chloro-N-(5-chloro-1-(3-fluoro-1-(3-methyloxetan-3-yl)piperidin-4-yl)-1H-pyrazol-4-yl)-7-(2,2-difluorocyclopropyl)quinazolin-2-amine], the “LRRK2 pIC50” value was determined as 7.54. For the compound `CC1(N2CCC(n3ncc(Nc4ncc5cc(Cl)c(C6CC6(F)F)cc5n4)c3Cl)C(F)C2)COC1` (single isomer, unassigned) [Ex-3.2, (3R,4R)(7S) or (3R,4R)(7R) or (3S,4S)(7S) or (3S,4S)(7R) 6-chloro-N-(5-chloro-1-(3-fluoro-1-(3-methyloxetan-3-yl)piperidin-4-yl)-1H-pyrazol-4-yl)-7-(2,2-difluorocyclopropyl)quinazolin-2-amine], the “LRRK2 pIC50” value was determined as 7.07. With `CCN1CC[C@@H](c2cc3nc(Nc4cnn(CC(C)(C)O)c4Cl)ncc3cc2Cl)[C@H](F)C1` (single isomer, unassigned) [Ex-4.4, (3S,4S) or (3R,4R) 1-(5-chloro-4-((6-chloro-7-(1-ethyl-3-fluoropiperidin-4-yl)quinazolin-2-yl)amino)-1H-pyrazol-1-yl)-2-methylpropan-2-ol], the “LRRK2 pIC50” value was determined as 8.88. With `O[C@@H]1COCC1N1CC[C@H](c2cc3nc(Nc4cnn(C5CC5(F)F)c4Cl)ncc3cc2Cl)[C@@H](F)C1` (single isomer, unassigned) [Ex-4.9, (R)(3S,4S)(3S,4S) or (R)(3S,4S)(3R,4R) or (R)(3R,4R)(3S,4S) or (R)(3R,4R)(3R,4R) or (S)(3S,4S)(3S,4S) or (S)(3S,4S)(3R,4R) or (S)(3R,4R)(3S,4S) or (S)(3R,4R)(3R,4R) 4-(4-(6-chloro-2-((5-chloro-1-(2,2-difluorocyclopropyl)-1H-pyrazol-4-yl)amino)quinazolin-7-yl)-3-fluoropiperidin-1-yl)tetrahydrofuran-3-ol], the “LRRK2 pIC50” value is over 9.20. For `CC1(N2CC[C@H](c3cc4nc(Nc5cnn(C6CC6(F)F)c5Cl)ncc4cc3Cl)[C@@H](F)C2)COC[C@@H]1O` (single isomer, unassigned) [Ex-4.10, (R)(3S,4S)(3S,4S) or (R)(3S,4S)(3R,4R) or (R)(3R,4R)(3S,4S) or (R)(3R,4R)(3R,4R) or (S)(3S,4S)(3S,4S) or (S)(3S,4S)(3R,4R) or (S)(3R,4R)(3S,4S) or (S)(3R,4R)(3R,4R) 4-(6-chloro-2-((5-chloro-1-(2,2-difluorocyclopropyl)-1H-pyrazol-4-yl)amino)quinazolin-7-yl)-3-fluoropiperidin-1-yl)-4-methyltetrahydrofuran-3-ol], the “LRRK2 pIC50” value is recorded as over 9.20. For `CC1(N2CC[C@H](c3cc4nc(Nc5cnn(C6CC6(F)F)c5Cl)ncc4cc3Cl)[C@@H](F)C2)COC[C@@H]1O` (single isomer, unassigned) [Ex-4.11, (R)(3S,4S)(3S,4S) or (R)(3S,4S)(3R,4R) or (R)(3R,4R)(3S,4S) or (R)(3R,4R)(3R,4R) or (S)(3S,4S)(3S,4S) or (S)(3S,4S)(3R,4R) or (S)(3R,4R)(3S,4S) or (S)(3R,4R)(3R,4R) 4-(6-chloro-2-((5-chloro-1-(2,2-difluorocyclopropyl)-1H-pyrazol-4-yl)amino)quinazolin-7-yl)-3-fluoropiperidin-1-yl)-4-methyltetrahydrofuran-3-ol], the “LRRK2 pIC50” value came to 8.73. Regarding `CN1CC[C@@H](c2cc3nc(Nc4cnn(CC(C)(C)O)c4Cl)ncc3cc2Cl)[C@H](F)C1` (single isomer, unassigned) [Ex-4.22, (3S,4S) or (3R,4R) 1-(5-chloro-4-{[6-chloro-7-(3-fluoro-1-methylpiperidin-4-yl)quinazolin-2-yl]amino}-1H-pyrazol-1-yl)-2-methylpropan-2-ol], the “LRRK2 pIC50” value is reported as over 9.20. For the compound `CN1CC[C@H](c2cc3nc(Nc4cnn(CC(C)(C)O)c4Cl)ncc3cc2Cl)[C@@H](F)C1` (single isomer, unassigned) [Ex-4.23, (3S,4S) or (3R,4R) 1-(5-chloro-4-{[6-chloro-7-(3-fluoro-1-methylpiperidin-4-yl)quinazolin-2-yl]amino}-1H-pyrazol-1-yl)-2-methylpropan-2-ol], the “LRRK2 pIC50” value came out at 9.08. As to `CC1(n2ncc(Nc3ncc4cc(Cl)c([C@@H]5CCN(C6COC6)C[C@H]5F)cc4n3)c2Cl)CC1` (single isomer, unassigned) [Ex-4.27, (3S,4S) or (3R,4R) 6-chloro-N-[5-chloro-1-(1-methylcyclopropyl)-1H-pyrazol-4-yl]-7-[3-fluoro-1-(oxetan-3-yl)piperidin-4-yl]quinazolin-2-amine], the “LRRK2 pIC50” value is given as over 9.20. Take `CC1(n2ncc(Nc3ncc4cc(Cl)c([C@H]5CCN(C6COC6)C[C@@H]5F)cc4n3)c2Cl)CC1` (single isomer, unassigned) [Ex-4.28, (3S,4S) or (3R,4R) 6-chloro-N-[5-chloro-1-(1-methylcyclopropyl)-1H-pyrazol-4-yl]-7-[3-fluoro-1-(oxetan-3-yl)piperidin-4-yl]quinazolin-2-amine]: the “LRRK2 pIC50” value was over 9.20.

`CN1CC[C@@H](c2cc3nc(Nc4cnn(C5(C)CC5)c4Cl)ncc3cc2Cl)[C@H](O)C1` (single isomer, unassigned) [Ex-4.29, (3S,4S) or (3R,4R) 4-(6-chloro-2-{[5-chloro-1-(1-methylcyclopropyl)-1H-pyrazol-4-yl]amino}quinazolin-7-yl)-1-methylpiperidin-3-ol]: the “LRRK2 pIC50” value was found to be 8.07. Take `CN1CC[C@H](c2cc3nc(Nc4cnn(C5(C)CC5)c4Cl)ncc3cc2Cl)[C@@H](O)C1` (single isomer, unassigned) [Ex-4.30, (3S,4S) or (3R,4R) 4-(6-chloro-2-{[5-chloro-1-(1-methylcyclopropyl)-1H-pyrazol-4-yl]amino}quinazolin-7-yl)-1-methylpiperidin-3-ol]: the “LRRK2 pIC50” value is recorded as 7.32. Take `F[C@@H]1CN(C2COC2)CC[C@H]1c1cc2nc(Nc3cnn(C4CC4)c3Cl)ncc2cc1Cl` (single isomer, unassigned) [Ex-4.34, (3S,4S) or (3R,4R) 6-chloro-N-(5-chloro-1-cyclopropyl-1H-pyrazol-4-yl)-7-[3-fluoro-1-(oxetan-3-yl)piperidin-4-yl]quinazolin-2-amine]: the “LRRK2 pIC50” value amounted to 9.12.

Turning to `F[C@H]1CN(C2COC2)CC[C@@H]1c1cc2nc(Nc3cnn(C4CC4)c3Cl)ncc2cc1Cl` (single isomer, unassigned) [Ex-4.35, (3S,4S) or (3R,4R) 6-chloro-N-(5-chloro-1-cyclopropyl-1H-pyrazol-4-yl)-7-[3-fluoro-1-(oxetan-3-yl)piperidin-4-yl]quinazolin-2-amine], the “LRRK2 pIC50” value was over 9.20.

The assay is the same for the next values; noted with them: G2019S LRRK2, 134 μM ATP (Km ATP), mean values; read-out: LRRK2 pIC50 (converted).
Take `F[C@@H]1CNCC[C@H]1c1cc2nc(Nc3cnn(C4CC4)c3Cl)ncc2cc1Cl` (single isomer, unassigned) [Ex-4.2, (3S,4S) or (3R,4R) 6-chloro-N-(5-chloro-1-cyclopropyl-1H-pyrazol-4-yl)-7-(3-fluoropiperidin-4-yl)quinazolin-2-amine]: the IC50 was under 0.631 nM. Still for that read-out and setting: the same measure for `CCN1CC[C@@H](c2cc3nc(Nc4cnn(CC(C)(C)O)c4Cl)ncc3cc2Cl)[C@H](F)C1` (single isomer, unassigned) [Ex-4.5, (3S,4S) or (3R,4R) 1-(5-chloro-4-((6-chloro-7-(1-ethyl-3-fluoropiperidin-4-yl)quinazolin-2-yl)amino)-1H-pyrazol-1-yl)-2-methylpropan-2-ol]: 1.62 nM.

`Cc1c(Nc2ncc3cc(Cl)c(C4CCN(CC(O)C(F)(F)F)CC4)cc3n2)cnn1C1CC1` (single isomer, unassigned) [Ex-4.12, (R) or (S) 3-(4-(6-chloro-2-((1-cyclopropyl-5-methyl-1H-pyrazol-4-yl)amino)quinazolin-7-yl)piperidin-1-yl)-1,1,1-trifluoropropan-2-ol]: the IC50 was under 0.631 nM. For the compound `CC1(n2ncc(Nc3ncc4cc(Cl)c(C5CCN(C6COC6)C5)cc4n3)c2Cl)CC1` (single isomer, unassigned) [Ex-4.25, (S) or (R) 6-chloro-N-[5-chloro-1-(1-methylcyclopropyl)-1H-pyrazol-4-yl]-7-[1-(oxetan-3-yl)pyrrolidin-3-yl]quinazolin-2-amine], the IC50 was 3.09 nM.

For `CC1(n2ncc(Nc3ncc4cc(Cl)c(C5CCN(C6COC6)C5)cc4n3)c2Cl)CC1` (single isomer, unassigned) [Ex-4.26, (S) or (R) 6-chloro-N-[5-chloro-1-(1-methylcyclopropyl)-1H-pyrazol-4-yl]-7-[1-(oxetan-3-yl)pyrrolidin-3-yl]quinazolin-2-amine], the IC50 was 4.9 nM. For `Clc1cc2cnc(Nc3cnn(C4CC4)c3Cl)nc2cc1C1CCN(C2COC2)C1` (single isomer, unassigned) [Ex-4.32, (S) or (R) 6-chloro-N-(5-chloro-1-cyclopropyl-1H-pyrazol-4-yl)-7-[1-(oxetan-3-yl)pyrrolidin-3-yl]quinazolin-2-amine], the IC50 is 16.6 nM. Consider `Clc1cc2cnc(Nc3cnn(C4CC4)c3Cl)nc2cc1C1CCN(C2COC2)C1` (single isomer, unassigned) [Ex-4.33, (S) or (R) 6-chloro-N-(5-chloro-1-cyclopropyl-1H-pyrazol-4-yl)-7-[1-(oxetan-3-yl)pyrrolidin-3-yl]quinazolin-2-amine], for which the IC50 was 8.13 nM.

Source of the values: patent publication US12540131B2 (Merck Sharp & Dohme LLC, priority 2019, dated 2026).
